Data taken from patent US9382330B2, “Pdia4, target of cytopiloyne derivatives, for tumor diagnosis and treatment” (ACADEMIA SINICA, priority 2010, dated 2016).
“Also recorded” adds a separate entry of the source. Like-named read-outs stand apart in the source and are kept apart here.

Legend:
GST-Pdia4 [1] = molecular target: T1, GST-Pdia4 (Homo sapiens, UniProt P13667); test: Pull down assay of GST fusion proteins with BCP (avidin-POD blot); type: binding; conditions: 2-mercaptoethanol added to the incubation
T1 construct: made in house; host or cells: E. coli BL21 DE3 pLysS
T1 sequence (P13667 21-645): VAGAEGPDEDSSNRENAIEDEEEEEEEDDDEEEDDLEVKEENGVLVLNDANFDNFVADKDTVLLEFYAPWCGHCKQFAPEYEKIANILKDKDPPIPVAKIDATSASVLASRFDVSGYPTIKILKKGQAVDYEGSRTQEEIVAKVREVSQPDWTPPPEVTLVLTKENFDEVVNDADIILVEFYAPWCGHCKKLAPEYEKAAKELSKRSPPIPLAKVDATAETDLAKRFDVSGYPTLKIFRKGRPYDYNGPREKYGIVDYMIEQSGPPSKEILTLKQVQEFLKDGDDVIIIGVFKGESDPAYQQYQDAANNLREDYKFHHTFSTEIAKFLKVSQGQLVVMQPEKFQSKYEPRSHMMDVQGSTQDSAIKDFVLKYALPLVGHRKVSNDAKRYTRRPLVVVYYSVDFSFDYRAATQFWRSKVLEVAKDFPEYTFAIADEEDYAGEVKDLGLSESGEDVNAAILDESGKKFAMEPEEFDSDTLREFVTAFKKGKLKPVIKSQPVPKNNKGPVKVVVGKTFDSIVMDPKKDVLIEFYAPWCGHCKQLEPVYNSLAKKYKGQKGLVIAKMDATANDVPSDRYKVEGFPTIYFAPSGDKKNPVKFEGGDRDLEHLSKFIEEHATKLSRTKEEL
Procedure: (§1) pGEX4T3-Hspa5, pGEX4T3-Pdia4, and pGEX4T3-TecSH3 were obtained by cloning human Hspa5 cDNA, human Pdia4 cDNA and the SH3 domain of mouse Tec cDNA to a pGEX4T3 vector, respectively. GST fusion proteins were purified from the bacterial host E. coli BL21 DE3 pLysS, which harbored the above constructs, according to the manufacturer's instructions (Amersham Biosciences, NJ, USA). Glutathione agarose bead-bound GST fusion proteins (0.15 μg) were incubated with DMSO vehicle or BCP (0.026 μg) for overnight. The proteins were separated by SDS-PAGE and blotted with avidin-POD. For competition assays, CP (0.16 μg (10-fold) and 0.81 μm (50-fold)) or CPA (0.09 μg (10-fold) and 0.45 μm (50-fold)) was added to the above incubation. For interference assay, 2-mercaptoethanol (2.2 mg) was added to the incubation. To test effect of CPA on disulfide isomerase activity of GST-Pdia4, reduced BPTI (0.39 μg) was incubated with redox buffer in the presence of vehicle, 5.64 μg GST-Pdia4 or 5.64 μg GST-Pdia4 plus CPA (0.33 μg). Enzymatic activity of GST-Pdia4, shown as fraction remaining (%), was determined by the conversion of the reduced BPTI into disulfide intermediates as described (Satoh, M., et al. (2005) Cell Stress Chap. 10(3), 211-220).

tumor cell = conditions: cited from earlier work
Jurkat cells [2] = test: WST-1 assay (cell viability / growth inhibition); type: cell-based, human; conditions: WST-1, 24 hour incubation
Procedure: WST-1 assays were performed to measure cell viability. Briefly, Jurkat cells (5×10^3) were grown in 100 μl per well. After 24 hour incubation with DMSO or CP derivatives, the cells were incubated with WST-1 at 37° C. for 30 minutes and characterized by 440 nm absorption. To stain BCP-bound proteins of Jurkat cells, 30 μM of DMSO, biotin and BCP was incubated with Jurkat cells for 24 hours, respectively. After washing, the cells underwent surface or intracellular staining with avidin-PE-TR (Caltag, Calif., USA), followed by fluorescence activated cell sorting (FACS) analysis. The FACS data were processed using FCS express 3.0 software (De Novo Inc, CA, USA).

GST-Pdia4 [3] = molecular target: T1, GST-Pdia4; test: Competition assay for binding of GST-Pdia4 and BCP; conditions: 10-fold and 50-fold excess
Procedure: as §1

Jurkat cells [4] = test: Cell growth and death by counting living and dead cells with eosin Y; type: cell-based; conditions: for Jurkat cell growth: indicated concentrations, 6 days
Procedure: (§2) FIGS. 1A-C Effect of cytopiloyne (CP) and cytopiloyne aglycone (CPA) on cell growth, death and proliferation. FIG. 1A-B are graphs showing effects of CP and CPA on growth and death of Jurkat cells. Jurkat cells were grown in RPMI medium in the presence of DMSO (−), CP and CPA at the indicated concentrations for 6 days. Numbers of living cells (FIG. 1A) and dead cells (FIG. 1B) were counted by using eosin Y and hematocytometer. Growth (%) is defined as 100% multiplied by the ratio of the living cell number with compound treatment to that with the control treatment. Death (%) is defined as 100% multiplied by the ratio of the dead cell number to a total of cells (both living and dead). FIG. 1C is a graph showing effect of CP and CPA on proliferation of Jurkat cells. Jurkat cells, which were already labeled with AFSE, were grown under the same condition as the Jurkat cells shown in FIGS. 1A-B. Mean fluorescent intensity (MFI) of the cells on days 0, 2, 4 and 6 were determined using FACS.
Jurkat cells were infected with different lentiviral particles 2 days prior to use. The cells were divided into 3 aliquots. One aliquot was tested for cell growth for 6 days and the number of live and dead cells was calculated using eosin Y. Another aliquot was stained with AFSE, monitored for cell proliferation for 6 days and followed byFACS analysis. Another aliquot was pulsed with 5-bromo-2-deoxyuridine (BrdU) for 30 minutes and chased for 0 to 48 hours. The cells underwent intracellular staining with anti-BrdU antibody and FACS analysis. The other aliquot was tested for caspase activity. Caspase 3/7 fluorescent substrate was incubated with 1 μg of total lysate and caspase activity, shown in relative light unit (RLU), was measured with Victor V luminescence counter. To evaluate in vivo tumor growth, lentivirally infected Jurkat cells (1×10^6) were subcutaneously inoculated into scid/beige mice. Tumor incidence, tumor size and survival rate of the tumor-bearing mice were scored.

Jurkat cells [5] = test: AFSE cell proliferation assay (FACS); type: cell-based, human; conditions: low doses, up to 6 days
Procedure: as §2
Jurkat cells were infected with different lentiviral particles 2 days prior to use. […] One aliquot was tested for cell growth for 6 days and the number of live and dead cells was calculated using eosin Y. Another aliquot was stained with AFSE, monitored for cell proliferation for 6 days and followed byFACS analysis. […] Tumor incidence, tumor size and survival rate of the tumor-bearing mice were scored.

T cell = conditions: cited from earlier work
[6] = test system: TS/A, mammary gland carcinoma; test: Cell death of TS/A mammary gland carcinoma; type: cell-based
GST-Pdia4 [7] = molecular target: T1, GST-Pdia4; test: Disulfide isomerase activity of GST-Pdia4 with reduced BPTI; type: biochemical; conditions: reduced BPTI substrate, redox buffer
Procedure: as §1

[8] = test system: human umbilical vein endothelial cells; conditions: cited from earlier work
GST-Pdia4 [9] = molecular target: T1, GST-Pdia4; test: MS/MS analysis of GST-Pdia4/CPA adduct; type: binding; conditions: 24 hours, LC/MS/MS
Procedure: Band 1 were cut from the coomassie blue gel and subjected to in gel digestion. Briefly, the gel was dehydrated with acetonitrile, vacuum dried, and rehydrated with ammonium bicarbonate at 37° C. for 1 hour. After alkylation with iodoacetamide, the gel was suspended with 25 mM ammonium bicarbonate containing trypsin at 37° C. for 16 hours. Tryptic peptides were analyzed with LC-nanoESI-MS/MS system. Briefly, the peptides were trapped and desalted isocratically on an LC-Packings PepMap™ C18 μ-Precolumn™ Cartidge (300 μm i.d.×5 mm; Dionex, Calif., USA) for 2 minutes with 0.1% formic acid. The peptides were separated on a C18 capillary column (15 cm×75 μm i.d.) packed with 5 μm, Zorbax 300 SB C18 paticles (Micro-Tech Scientific, Calif., USA), eluted using a 40 minute fast gradient of 5% to 80% acetonitrile containing 0.1% formic acid and subjected to Micromass Q-TOF Ultima™ API mass spectrometer, equipped with an ESI source. After data acquisition, MS/MS spectra for the sample were combined and querred against non-redundant protein database using Mascot program (Matrix Science, MA, USA). For MS/MS analysis of GST-Pdia4 and GST-Pdia4/CPA adduct, GST-Pdia4 (200 μg) was incubated with DMSO or CPA (24 μg) for 24 hours. The proteins underwent LC/MS/MS analysis.

OCCS [2-mercaptoethanol]
interference of GST-Pdia4/BCP interaction by reducing agent (GST-Pdia4 [1]): significantly diminished the interplay of GST-Pdia4 and BCP

bacitricin
tumor cell death (tumor cell): cause tumor cell death

CC#CC#CC#CC#CCCC(CO)O[C@@H]1O[C@H](CO)[C@@H](O)[C@H](O)[C@H]1O (some centres unmarked) [CP, cytopiloyne]
half maximal inhibitory concentration (IC50) for growth inhibition of Jurkat cells (Jurkat cells [2]): 52.8 µg/mL | interference with interaction between BCP and GST-Pdia4 (GST-Pdia4 [3]): could interfere with the interaction between BCP and GST-Pdia4 at a dose-dependent manner | cytotoxicity at low doses (Jurkat cells [4]): did not show significant cytotocxicity | Jurkat cell growth (Jurkat cells [4]): inhibited Jurkat cell growth in a dose-dependent manner | Jurkat cell proliferation (Jurkat cells [5]): significantly suppressed Jurkat cell proliferation | T cell proliferation (T cell): showed an inhibition of T cell proliferation

CC#CC#CC#CC#CCCC(O)CO (centres unmarked) [CPA, cytopiloyne aglycone]
cell death of TS/A [6]: induce cell death | half maximal inhibitory concentration (IC50) for growth inhibition of Jurkat cells (Jurkat cells [2]): 2.5 µg/mL | disulfide isomerase activity of GST-Pdia4 (GST-Pdia4 [7]): inhibited this activity | cell death of human umbilical vein endothelial cells [8]: promoted cell death | interference with interaction between BCP and GST-Pdia4 (GST-Pdia4 [3]): could interfere with the interaction between BCP and GST-Pdia4 at a dose-dependent manner; also recorded: more effective for the interference than CP | cytotoxicity at low doses (Jurkat cells [4]; CPA from 0.7 to 1.3 μg/ml): did not show significant cytotocxicity | Jurkat cell growth (Jurkat cells [4]): inhibited Jurkat cell growth in a dose-dependent manner | covalent adduct of CPA on GST-Pdia4 (GST-Pdia4 [9]): adducted to two cysteine residues of the second CGHC motif of Pdia4 | Jurkat cell proliferation (Jurkat cells [5]): significantly suppressed Jurkat cell proliferation
